Counter-ions that a name gives are not always drawn. Like-named read-outs stand apart in the source and are kept apart here.
Assays:
[1] = target: His-tagged KRAS G12D protein (Homo sapiens (Human), UniProt P01116, G12D); assay: KRAS G12D TR-FRET Assay; type: binding
Summary of the method: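 Each incubation ran at room temperature: enzyme with compound for 30 minutes, peptide for one hour, and detection reagents (0.4 nM europium anti-6×His, 5 nM streptavidin-d2) for one hour more. Protein and peptide stocks were each diluted to 20 nM before addition.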

[2] = test system: Phosphorylation of ERK1/2 in AsPC-1 cells; assay: Phospho-ERK1/2 MSD Assay; type: cell-based, human; conditions: Homo sapiens, ASPC1, 2 h
Summary of the method: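 Read-out: MSD electrochemiluminescent detection of phosphorylated ERK1/2 in whole-cell lysates, fitted to a 4-parameter logistic curve for IC50. Prior to lysis, AsPC-1 cells (25,000 per well) received a 2 h compound dose-response at 37 °C.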

[3] = target: GDP-bound KRAS protein (aa 1-169), containing both G12D and C118A amino acid substitutions (Homo sapiens (Human), UniProt P01116, C118A/G12D); assay: KRAS G12D Coupled Nucleotide Exchange Assay; type: biochemical
Sequence of GDP-bound KRAS protein (aa 1-169), containing both G12D and C118A amino acid substitutions (P01116 other isoform, or with tags, fused parts or gaps G12D/C118A): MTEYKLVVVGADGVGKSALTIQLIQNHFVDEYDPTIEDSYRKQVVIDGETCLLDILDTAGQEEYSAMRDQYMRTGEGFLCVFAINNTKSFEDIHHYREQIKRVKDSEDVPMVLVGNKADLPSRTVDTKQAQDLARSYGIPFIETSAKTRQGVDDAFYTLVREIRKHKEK

AsPC-1 cells = assay: AsPC-1 CTG Assay (CellTiter-Glo cell viability); type: cell-based, human; conditions: Homo sapiens, ASPC1, 72 h, first value of the cell, read-out: G12D/C/V Cell Proliferation CTG (72 h) AsPC-1
Experimental: AsPC-1 and SW620 CTG Assay Protocols
AsPC-1 (human pancreatic adenocarcinoma; ATCC CRL-1682) or SW620 (human colon adenocarcinoma; ATCC CCL-227) cells were cultured in RPMI 1640 medium containing 10% fetal bovine serum and 1× penicillin/streptomycin/L-glutamine. Cells were seeded in 384-well plates at a density of 3.33E+04 cells/mL and incubated at 37° C., 5% CO2, overnight. Serially-diluted compound or DMSO was added to the cells, and plates were incubated at 37° C., 5% CO2 for 72 h. Cell viability was measured using a CellTiter-Glo® Luminescent Cell Viability Assay kit (Promega) according to the manufacturer's protocol. The luminescence signal of treated samples was normalized to DMSO control, and data were analyzed using a 4-parameter logistic model to calculate IC50 values.

[4] = TR-FRET, read-out: KRAS G12D Binding
[5] = read-out: 2 h p-ERK (AsPC-1 cells)
[6] = 2 hours compound pre-incubation, read-out: KRAS G12D Coupled Exchange
[7] = read-out: KRAS G12D Binding IC50
[8] = read-out: 2 h p-ERK (AsPC-1 cells), IC50
[9] = read-out: KRAS G12D Coupled Exchange IC50

Sequence of His-tagged KRAS G12D protein (P01116 other isoform, or with tags, fused parts or gaps G12D): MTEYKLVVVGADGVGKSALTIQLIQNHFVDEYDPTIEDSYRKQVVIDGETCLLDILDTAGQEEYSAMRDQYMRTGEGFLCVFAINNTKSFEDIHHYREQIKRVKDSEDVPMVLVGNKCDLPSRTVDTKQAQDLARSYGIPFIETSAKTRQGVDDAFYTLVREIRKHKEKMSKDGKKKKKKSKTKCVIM

| SMILES | IC50 [1, 4] [nM] | IC50 [2, 5] [nM] | IC50 [3, 6] [nM] | IC50 (AsPC-1 cells; AsPC-1 cells (G12D), 72 h) [nM] | IC50 [1, 7] [nM] | IC50 [2, 8] [nM] | IC50 [3, 9] [nM] | IC50 (AsPC-1 cells; AsPC-1, 72 h) [nM] |
| --- | --- | --- | --- | --- | --- | --- | --- | --- |
| CN(C)CC1(COc2nc3c4cnc(c(F)c4n2)-c2c(c(Cl)cc4[nH]ncc24)CCCCO[C@H]2C[C@]4(CCCN3C4)C2)CC1 [Example 405, 1-(1-((((1S,3R)-10-chloro-32-fluoro-4-oxa-13,14,19,23,25,27-hexaazaheptacyclo[25.3.1.1~1,3~.1~18,22~.0~9,17~.0~12,16~.0~21,26~]tritriaconta-9,11,14,16,18(32),19,21,23,25-nonaen-24-yl)oxy)methyl)cyclopropyl)-N,N-dimethylmethanamine] | 5 | 41.2 | 4 | 174 | – | – | – | – |
| O=C1CCCCc2c(Cl)cc3[nH]ncc3c2-c2ncc3c(nc(OC[C@@]45CCCN4C[C@H](F)C5)nc3c2F)N2CCOCC(C1)C2 (mixture of isomers) [Example 230] | – | – | – | – | 12 | 95.1 | 9 | 174 |
| C[C@@]12CCCN(C1)c1nc(OC[C@@]34CCCN3C[C@H](F)C4)nc3c(F)c(ccc13)-c1cc(O)cc3ccc(F)c(c13)CCCC(=O)N2 [Example 16, (15R)-22,31-Difluoro-8-(((2R,7aS)-2-fluorotetrahydro-1H-pyrrolo[1,2-a]pyrrol-7a(5H)-yl)methoxy)-27-hydroxy-15-methyl-7,9,11,16-tetraazahexacyclo[19.7.1.1˜2,6˜.1˜11,15˜.0˜5,10˜.0˜25,29˜]hentriaconta-1(28),2(31),3,5,7,9,21,23,25(29),26-decaen-17-one bis(2,2,2-trifluoroacetate)] | – | – | – | – | 6 | 92 | 5 | 1200 |
| CN(C)CC1(COc2nc3c4cnc(c(F)c4n2)-c2c(c(Cl)cc4[nH]ncc24)CCCCC(=O)N2CC[C@@H]4CCN3C[C@@H]42)CC1 [Example 268, (28S,32R)-18-chloro-4-((1-((dimethylamino)methyl)cyclopropyl)methoxy)-33-fluoro-1,3,5,9,14,15,25-heptaazaheptacyclo[23.5.2.1~6,10~.0~2,7~.0~11,19~.0~12,16~.0~28,32~]tritriaconta-2,4,6,8,10(33),11,13,16,18-nonaen-24-one] | – | – | – | – | 7 | 246 | 4 | 1350 |
| CN(C)CC1(COc2nc3c4cnc(c(F)c4n2)-c2c(c(Cl)cc4[nH]ncc24)CCCOC(=O)O[C@]2(C)COCCN3C2)CC1 (single isomer, unassigned) [Example 331] | – | – | – | – | 5 | 15.4 | 3 | 115 |
| Cc1cc2[nH]ncc2c2c1CCOC(=O)O[C@H]1C[C@]3(CCCN(C3)c3nc(OC[C@@]45CCCN4C[C@H](F)C5)nc4cc-2ncc34)C1 [Example 349, (1R,3S)-24-(((2R,7aS)-2-fluorotetrahydro-1H-pyrrolo[1,2-a]pyrrol-7a(5H)-yl)methoxy)-10-methyl-4,6-dioxa-13,14,19,23,25,27-hexaazaheptacyclo[25.3.1.1~1,3~.1~18,22~.0~9,17~.0~12,16~.0~21,26~]tritriaconta-9,11,14,16,18(32),19,21,23,25-nonaen-5-one] | – | – | – | – | 5 | 30.4 | 2 | 645 |
| C[C@@H]1C[C@@H](COc2nc3c4cnc(c(F)c4n2)-c2c(c(Cl)cc4[nH]ncc24)CCCOC(=O)O[C@@H]2COCCN3C2)N(C)C1 [Example 328, (26S)-18-chloro-4-(((2S,4R)-1,4-dimethyl-2-pyrrolidinyl)methoxy)-32-fluoro-23,25,28-trioxa-1,3,5,9,14,15-hexaazahexacyclo[24.4.1.1~6,10~.0~2,7~.0~11,19~.0~12,16~]dotriaconta-2,4,6(32),7,9,11,13,16,18-nonaen-24-one] | – | – | – | – | 5 | 29 | 3 | 50 |
| Cc1cc2[nH]ncc2c2c1CCCCC(=O)O[C@]1(CF)CCCN(C1)c1nc(OC[C@@]34CCCN3C[C@H](F)C4)nc3c(F)c-2ncc13 [Example 33, (17R)-30-fluoro-17-(fluoromethyl)-24-(((2R,7aS)-2-fluorotetrahydro-1H-pyrrolo[1,2-a]pyrrol-7a(5H)-yl)methoxy)-9-methyl-16-oxa-5,6,21,23,25,29-hexaazahexacyclo[24.3.1.1~17,21~.0~2,10~.0~3,7~.0~22,27~]hentriaconta-1(30),2,4,7,9,22,24,26,28-nonaen-15-one] | – | – | – | – | 6 | 77 | 4 | 809 |
| O=C1OCCC2CCc3cc4[nH]ncc4c(c32)-c2ncc3c(nc(OC[C@@]45CCCN4C[C@H](F)C5)nc3c2F)N2CCC[C@H](C2)O1 (stereo partly drawn) [Example 125] | – | – | – | – | 9 | 66 | 5 | 410 |
| Cc1cc2[nH]ncc2c2c1C/C=C/COC[C@@H]1CCCN(C1)c1nc(OC[C@@]34CCCN3C[C@H](F)C4)nc3c(F)c-2ncc13 [Example 130] | – | – | – | – | 5 | 32 | 2 | 230 |
| OC1CCCCc2c(Cl)cc3[nH]ncc3c2-c2ncc3c(nc(OC[C@@]45CCCN4C[C@H](F)C5)nc3c2F)N2CCC[C@@H](C1)C2 (mixture of isomers) [Example 385, bis(2,2,2-trifluoroacetate) salt] | 31 | 137 | 16 | 211 | – | – | – | – |
| O=C1N[C@@H]2CCCCN(C2)c2nc(OC[C@@]34CCCN3C[C@H](F)C4)nc3c(F)c(ncc23)-c2c(c(Cl)cc3[nH]ncc23)CCCO1 [Example 256, (26R)-18-chloro-32-fluoro-4-(((2R,7aS)-2-fluorotetrahydro-1H-pyrrolo[1,2-a]pyrrol-7a(5H)-yl)methoxy)-23-oxa-1,3,5,9,14,15,25-heptaazahexacyclo[24.4.1.1~6, 10~.0~2,7~.0~11,19~.0~12,16~]dotriaconta-2,4,6(32),7,9,11,13,16,18-nonaen-24-one] | – | – | – | – | 4 | 9.4 | 5 | 229 |
| O=C1N[C@@H]2C[C@H](O)CN(C2)c2nc(OC[C@@]34CCCN3C[C@H](F)C4)nc3c(F)c(ncc23)-c2c(c(Cl)cc3[nH]ncc23)CCCO1 [Example 284, (17R,19S)-9-chloro-30-fluoro-24-(((2R,7aS)-2-fluorotetrahydro-1H-pyrrolo[1,2-a]pyrrol-7a(5H)-yl)methoxy)-19-hydroxy-14-oxa-5,6,16,21,23,25,29-heptaazahexacyclo[24.3.1.1~17,21~.0~2,10~.0~3,7~.0~22,27~]hentriaconta-1(30),2,4,7,9,22,24,26,28-nonaen-15-one] | – | – | – | – | 5 | 41.3 | 2 | 788 |
| Fc1c2ncc3c(nc(OC[C@@]45CCCN4C[C@H](F)C5)nc13)N1CC[C@@H](COCCCCc3c(Cl)cc4[nH]ncc4c3-2)C1 [Example 254, (17R)-9-chloro-29-fluoro-23-(((2R,7aS)-2-fluorotetrahydro-1H-pyrrolo[1,2-a]pyrrol-7a(5H)-yl)methoxy)-15-oxa-5,6,20,22,24,28-hexaazahexacyclo[23.3.1.1~17,20~.0~2,10~.0~3,7~.0~21,26~]triaconta-1(29),2,4,7,9,21,23,25,27-nonaene] | – | – | – | – | 19 | 545 | 12 | 3970 |
| C[C@@]12CCCN(C1)c1nc(OC[C@@]34CCCN3C[C@H](F)C4)nc3c(F)c(ccc13)-c1cc(O)cc3ccc(F)c(c13)CCC(F)C(=O)N2 (mixture of isomers) [Example 17, 2,2,2-trifluoroacetate salt] | – | – | – | – | 11 | 46 | 7 | 405 |
